Reference: patent US12540164B2, “Peptides for treatment and prevention of nonalcoholic fatty liver disease and fibrosis” (UNIVERSITE DE STRASBOURG, priority 2017, dated 2026)
Entries after “also recorded” stand apart in the source; their conditions may differ. Ends that are not written are not given here.

Key:
[1] = tested on: GLP-1; test: Circulating GLP-1 enzyme immunoassay in plasma; type: in vivo; conditions: 11 days post single adipose tissue injection, high fat/high glucose diet male mice
Procedure: Mice were injected with a single dose of either scramble peptide or PATAD or ADPIF. 11 days post injection, the mice were euthanized, and plasma was obtained and used for determination of circulating GLP1 from mice with the indicated treatment.
For LOXL2 and GLP-1 measurements, the two commercially available kits: Lysyl Oxydase Like Protein 2 (LOXL2), Enzyme-linked Immunosorbent Assay Kit, Mus musculus, SEF552Mu, Cloud Clone Corp;
RayBio Human/Mouse/Rat GLP-1 Enzyme Immunoassay Kit, EIA-GLP1, RayBiotech were used with the indicated procedures from the manufacturer.

[2] = tested on: hepatic lipid droplets; test: AdipoRed staining of liver sections (lipid droplets); type: in vivo; conditions: 3 months after one unique injection in adipose tissue; DIO male mice; AdipoRed/DAPI cryosections
Procedure: (§1) Mice presented were euthanized and their plasma and organs were sampled for analysis. […] Cryosection of the livers were then stained with Adipored and DAPI to detect the level of lipid droplets. […] Hepatic function is assessed by two liver related strong biomarkers namely (AST (Aspartate Aminotransferase) and ALT (Alanine Aminotransferase)), whose levels increase proportionately with liver damage.
Livers were isolated and briefly washed in PBS buffer (pH 7.4). after weighing the dried liver, for the liver to body weight ratio, a sliced sample of the liver were then placed in 4% paraformaldehyde (in 0.1M sodium phosphate buffer, pH 7.2) for 15 min, washed in PBS and incubated in AdipoRed dye (1/25; Lonza, Switzerland) with 30 μM DAPI (Sigma-Aldrich, USA) for 15 minutes. After 3 washes with PBS samples were mounted on slides and pictures were taken using Zeiss microscope.

[3] = tested on: AST (aspartate aminotransferase); test: Plasma AST ELISA; type: in vivo, mice; conditions: 3 months after a single subcutaneous peptide injection, n=4
Procedure: as §1
Plasma samples from the indicated mice were used to determine plasma content of either AST (aspartate aminotransferase) or […] (alanine aminotransferase) both robust indicators of liver damage were measured using commercially purchased ELISA kits. These parameters were determined according to manufacturer's procedure. • SEB214Mu (96 Tests): Enzyme-linked Immunosorbent Assay Kit For Aspartate Aminotransferase (AST), Cloud Clone Corp. • SEA207Mu (96 Tests): Enzyme-linked Immunosorbent Assay Kit For Alanine Aminotransferase (ALT), Cloud Clone Corp.

[4] = tested on: Sterol regulatory element binding transcription factor 1 (Srebf1); test: Hepatic expression of Srebf1 (q-PCR); type: in vivo; conditions: 11 days post injection in the adipose tissue; DIO male mice; vs control
From the text: AdipoRed Staining of Liver Sections

[5] = tested on: Collagen IV; test: Immunostaining of liver cryosections for Collagen IV (DIO-NASH); type: in vivo; conditions: DIO-NASH mice, 3 months after injection in subcutaneous adipose tissue; vs untreated
Procedure: For immunofluorescence experiments, liver and kidneys freshly sampled were included in Optimal Cutting Temperature Compound™ (OCT™, Catalog #4583, Tissue-Tek® OCT™, Sakura® Finetek, Torrance, California, USA) and cryosections of 7 μm were cut with Cryostat Leica CM1950. Cryosections were washed with 1×PBS and fixated in 4% formaldehyde solution for 15 min (Catalog #: F555-4L, Sigma-Aldrich, Saint-Louis, Missouri, USA) and then permeabilized with 0.02% SDS-PBS for 30 seconds. Blocking solution was 5%-Bovine Serum Albumin (BSA) in PBS. Primary antibodies were diluted in blocking solution and incubated overnight and indicated secondary antibodies were diluted in PBS for 30 minutes. Nuclei were counterstained with Hoechst (Catalog #: D1306, Invitrogen, Carlsbad, California, USA). Slides were then mounted with Vectashield® Mounting Medium (Catalog #: H-1000, Vector Laboratories, Burlingame, California, USA). Images were acquired and analyzed with Zeiss Imager.Z2 microscope equipped with either Zeiss AxioVision or Zeiss ZEN 2012 software (Carl Zeiss Inc., Oberkochen, Germany). Anti-Collagen IV antibody, ab6586 from Abcam and LOXL2 antibody, GTX105085 from GeneTex were used.

[6] = tested on: lysophosphatidylcholines (LPCs); test: Lysophosphatidylcholines (LPC) lipid content in pancreas, adipose tissue, liver and plasma; type: in vivo, mice; conditions: 25 μg per mouse subcutaneous
From the text: For the lipid composition in the different tissues and plasma, all samples were flashed frozen at the time of sampling, immediately after sacrifice, and were sent to the lipidomic core facility of Dijon, (Plateforme de Lipidomique-uBorgogne INSERM UMR866/Labex LipSTIC).

[7] = STAM model of non-alcoholic steatohepatitis: liver triglyceride content; type: in vivo; conditions: STAM NASH mice
Procedure: NASH was induced in 12 male mice by a single subcutaneous injection of 200 μg streptozotocin (STZ, Sigma-Aldrich, USA) solution 2 days after birth and feeding with high fat diet (HFD, 57 kcal % fat, Cat #HFD32, CLEA Japan, Inc., Japan) after 4 weeks of age.
The peptide was administered subcutaneously in the adipose tissue in a volume of […] per mouse.
The peptide was administered at a dose of 25 microgram (μg) per mouse once weekly.
Liver total lipid-extracts were obtained by Folch's method (Folch J. et al., J. Biol. Chem. 1957; 226: 497). Liver samples were homogenized in chloroform-methanol (2:1, v/v) and incubated overnight at room temperature. After washing with chloroform-methanol-water (8:4:3, v/v/v), the extracts were evaporated to dryness, and dissolved in isopropanol. Liver triglyceride content was measured by Triglyceride E-test (Wako Pure Chemical Industries, Ltd., Japan).
Six NASH mice were subcutaneously in the adipose tissue administered vehicle supplemented with ADPIF peptide at a dose of […] per mouse once weekly from 4 to 9 weeks of age.

[8] = STAM model of non-alcoholic steatohepatitis: Sirius red staining, fibrosis area; type: in vivo; conditions: STAM NASH mice
Procedure: NASH was induced in 12 male mice by a single subcutaneous injection of 200 μg streptozotocin (STZ, Sigma-Aldrich, USA) solution 2 days after birth and feeding with high fat diet (HFD, 57 kcal % fat, Cat #HFD32, CLEA Japan, Inc., Japan) after 4 weeks of age. The peptide was administered subcutaneously in the adipose tissue in a volume of […] per mouse. The peptide was administered at a dose of 25 microgram (μg) per mouse once weekly. To visualize collagen deposition, Bouin's fixed liver sections were stained using picro-Sirius red solution (Waldeck, Germany). For quantitative analysis of fibrosis area, bright field images of Sirius red-stained sections were captured around the central vein using a digital camera (DFC295; Leica, Germany) at 200-fold magnification, and the positive areas in 5 fields/section were measured using ImageJ software (National Institute of Health, USA). Six NASH mice were subcutaneously in the adipose tissue administered vehicle supplemented with ADPIF peptide at a dose of […] per mouse once weekly from 4 to 9 weeks of age.

[9] = 25 μg per mouse SC once weekly 4-9 wks of age, sacrifice 9 wks, n = 6
[10] = 25 μg per mouse SC once weekly 4-9 wks, Student's t-test

VECTTREKEVLASLDKAAFLTQLHS (not fully specified (bridges)) [ADPIF, R and S carry the stapling, preferably 2-(7-octenyl)arginine and 2-(4-pentenyl)serine]
circulating levels of GLP-1 [1]: restored high circulating levels of GLP1, with ADPIF inducing a greater increase than PATAD; also recorded: more active than PATAD peptide; also recorded: restore GLP1 circulating levels back to lean controls | size of the hepatic lipid droplets [2]: clearly showed a decrease; also recorded: global decrease in the sizes of the lipid droplets; also recorded: decrease in the diameter of the lipid droplets | circulating levels of AST [3]: dramatic decrease; also recorded: effective in reducing | hepatic expression level of Srebf1 [4]: repressed; also recorded: significantly decreased | Collagen IV expression in liver (immunostaining) [5]: effective in preventing the progression of fibrotic markers; also recorded: reduced | level of LPC 18:2 ([6]; adipose tissue and liver): most prominent reduction; also recorded: mostly reduced | levels of lysophosphatidylcholines (LPCs) in the tissues analyzed ([6]; adipose tissue, liver, plasma, euthanized 1 week after last injection): effective in reducing selective LPCS; also recorded: selective decrease of certain LPCs | Liver triglyceride (mean ± SD) [7, 9]: 35.1 ± 17.8 mg/g liver | liver triglyceride content compared with the Vehicle group [7, 10]: significant decrease | Sirius red-positive area (mean ± SD) [8, 9]: 0.62 ± 0.17% | fibrosis area (Sirius red-positive area) compared with the Vehicle group [8, 10]: significant decrease
